Measurements: PubChem BioAssay AID2060904 (Molecular Pharmacology Branch, DTP, NCI, 2025)

Test system: 349418-098-R-PDC complex spheroid viability
Test: Anticancer human tumor 349418-098-R-PDC patient-derived lung adenocarcinoma cell line growth inhibition [RAS]
Settings: for IC50: curve of first compound; for viability, T/C: stronger effect = lower value
Summary of the method: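 Multi-cell-type spheroids: tumor cells plus HUVEC endothelial cells and mesenchymal stem cells. RAS-pathway inhibitors were combined with targeted agents, each dosed in half-log steps down from clinical Cmax, or from 10 microM when Cmax was unknown.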

[1] = second compound 0.00316 µM, first compound 0.0316 µM
[2] = second compound 0.00316 µM, first compound 0.1 µM
[3] = second compound 0.00316 µM, first compound 0.316 µM
[4] = second compound 0.00316 µM, first compound 1 µM
[5] = second compound 0.00316 µM, first compound 3.16 µM
[6] = second compound 0.00316 µM, first compound 10 µM
[7] = second compound 0.01 µM, first compound 0.0316 µM
[8] = second compound 0.01 µM, first compound 0.1 µM
[9] = second compound 0.01 µM, first compound 0.316 µM
[10] = second compound 0.01 µM, first compound 1 µM
[11] = second compound 0.01 µM, first compound 3.16 µM
[12] = second compound 0.01 µM, first compound 10 µM
[13] = second compound 0.0316 µM, first compound 0.0316 µM
[14] = second compound 0.0316 µM, first compound 0.1 µM
[15] = second compound 0.0316 µM, first compound 0.316 µM
[16] = second compound 0.0316 µM, first compound 1 µM
[17] = second compound 0.0316 µM, first compound 3.16 µM
[18] = second compound 0.0316 µM, first compound 10 µM
[19] = second compound 0.1 µM, first compound 0.0316 µM
[20] = second compound 0.1 µM, first compound 0.1 µM
[21] = second compound 0.1 µM, first compound 0.316 µM
[22] = second compound 0.1 µM, first compound 1 µM
[23] = second compound 0.1 µM, first compound 3.16 µM
[24] = second compound 0.1 µM, first compound 10 µM
[25] = second compound 0.316 µM, first compound 0.0316 µM
[26] = second compound 0.316 µM, first compound 0.1 µM
[27] = second compound 0.316 µM, first compound 0.316 µM
[28] = second compound 0.316 µM, first compound 1 µM
[29] = second compound 0.316 µM, first compound 3.16 µM
[30] = second compound 0.316 µM, first compound 10 µM
[31] = second compound 1 µM, first compound 0.0316 µM
[32] = second compound 1 µM, first compound 0.1 µM
[33] = second compound 1 µM, first compound 0.316 µM
[34] = second compound 1 µM, first compound 1 µM
[35] = second compound 1 µM, first compound 3.16 µM
[36] = second compound 1 µM, first compound 10 µM
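Further: spheroids exposed to compound for seven days before viability readout.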

## CC(C)NCC(C(=O)N1CCN(c2ncnc3c2C(C)CC3O)CC1)c1ccc(Cl)cc1 (stereo unspecified) + C=CC(=O)N1CCN(c2nc(OCC3CCCN3C)nc3c(F)c(-c4nc(N)cc(C)c4C(F)(F)F)c(Cl)cc23)C(C)C1
Second compound 0.00316 µM
  IC50: 0.386 µM
Second compound 0.01 µM
  IC50: 0.252 µM
Second compound 0.0316 µM
  IC50: 0.593 µM
Second compound 0.1 µM
  IC50: 0.545 µM
Second compound 0.316 µM
  IC50: 0.62 µM
Second compound 1 µM
  IC50: 0.553 µM
[1]
  viability, T/C: 88.2%
[2]
  viability, T/C: 86.6%
[3]
  viability, T/C: 53.7%
[4]
  viability, T/C: 24.3%
[5]
  viability, T/C: 17.2%
[6]
  viability, T/C: 7.89%
[7]
  viability, T/C: 102%
[8]
  viability, T/C: 83.9%
[9]
  viability, T/C: 39.3%
[10]
  viability, T/C: 23.7%
[11]
  viability, T/C: 15.9%
[12]
  viability, T/C: 9.35%
[13]
  viability, T/C: 78%
[14]
  viability, T/C: 77.1%
[15]
  viability, T/C: 81.2%
[16]
  viability, T/C: 26.1%
[17]
  viability, T/C: 22.7%
[18]
  viability, T/C: 10%
[19]
  viability, T/C: 70%
[20]
  viability, T/C: 67.5%
[21]
  viability, T/C: 67.6%
[22]
  viability, T/C: 31.1%
[23]
  viability, T/C: 16.1%
[24]
  viability, T/C: 9.41%
[25]
  viability, T/C: 66.8%
[26]
  viability, T/C: 82.1%
[27]
  viability, T/C: 76.3%
[28]
  viability, T/C: 32.2%
[29]
  viability, T/C: 24.5%
[30]
  viability, T/C: 7.85%
[31]
  viability, T/C: 72.8%
[32]
  viability, T/C: 65.4%
[33]
  viability, T/C: 71.8%
[34]
  viability, T/C: 28.8%
[35]
  viability, T/C: 25%
[36]
  viability, T/C: 10.2%

## CC(C)n1nc(-c2ccc3oc(N)nc3c2)c2c(N)ncnc21 + C=CC(=O)N1CCN(c2nc(OCC3CCCN3C)nc3c(F)c(-c4nc(N)cc(C)c4C(F)(F)F)c(Cl)cc23)C(C)C1
Second compound 0.00316 µM
  IC50: 0.00533 µM
Second compound 0.01 µM
  IC50: 0.00353 µM
Second compound 0.0316 µM
  IC50: 0.00324 µM
Second compound 0.1 µM
  IC50: 0.00399 µM
Second compound 0.316 µM
  IC50: 0.00307 µM
Second compound 1 µM
  IC50: 0.00364 µM
Second compound 0.00316 µM, first compound 0.000316 µM
  viability, T/C: 85.2%
Second compound 0.00316 µM, first compound 0.001 µM
  viability, T/C: 90.4%
Second compound 0.00316 µM, first compound 0.00316 µM
  viability, T/C: 72.3%
Second compound 0.00316 µM, first compound 0.01 µM
  viability, T/C: 22.8%
[1]
  viability, T/C: 8.58%
[2]
  viability, T/C: 6.85%
Second compound 0.01 µM, first compound 0.000316 µM
  viability, T/C: 79.3%
Second compound 0.01 µM, first compound 0.001 µM
  viability, T/C: 124%
Second compound 0.01 µM, first compound 0.00316 µM
  viability, T/C: 54.2%
Second compound 0.01 µM, first compound 0.01 µM
  viability, T/C: 15.6%
[7]
  viability, T/C: 7.53%
[8]
  viability, T/C: 7.07%
Second compound 0.0316 µM, first compound 0.000316 µM
  viability, T/C: 76.6%
Second compound 0.0316 µM, first compound 0.001 µM
  viability, T/C: 115%
Second compound 0.0316 µM, first compound 0.00316 µM
  viability, T/C: 50.9%
Second compound 0.0316 µM, first compound 0.01 µM
  viability, T/C: 14.1%
[13]
  viability, T/C: 8.15%
[14]
  viability, T/C: 5.8%
Second compound 0.1 µM, first compound 0.000316 µM
  viability, T/C: 52.8%
Second compound 0.1 µM, first compound 0.001 µM
  viability, T/C: 98.9%
Second compound 0.1 µM, first compound 0.00316 µM
  viability, T/C: 58.2%
Second compound 0.1 µM, first compound 0.01 µM
  viability, T/C: 14.5%
[19]
  viability, T/C: 8.94%
[20]
  viability, T/C: 5.94%
Second compound 0.316 µM, first compound 0.000316 µM
  viability, T/C: 63.4%
Second compound 0.316 µM, first compound 0.001 µM
  viability, T/C: 90.8%
Second compound 0.316 µM, first compound 0.00316 µM
  viability, T/C: 49.3%
Second compound 0.316 µM, first compound 0.01 µM
  viability, T/C: 14%
[25]
  viability, T/C: 8.74%
[26]
  viability, T/C: 6.6%
Second compound 1 µM, first compound 0.000316 µM
  viability, T/C: 57.6%
Second compound 1 µM, first compound 0.001 µM
  viability, T/C: 79.6%
Second compound 1 µM, first compound 0.00316 µM
  viability, T/C: 53.8%
Second compound 1 µM, first compound 0.01 µM
  viability, T/C: 15.2%
[31]
  viability, T/C: 8.85%
[32]
  viability, T/C: 5.88%

## C[C@@H](NC(=O)c1ncnc(N)c1Cl)c1ncc(C(=O)Nc2cc(C(F)(F)F)c(Cl)cn2)s1 + C=CC(=O)N1CCN(c2nc(OCC3CCCN3C)nc3c(F)c(-c4nc(N)cc(C)c4C(F)(F)F)c(Cl)cc23)C(C)C1
Second compound 0.00316 µM
  IC50: 0.954 µM
Second compound 0.01 µM
  IC50: 1.51 µM
Second compound 0.0316 µM
  IC50: 2.04 µM
Second compound 0.1 µM
  IC50: 2.18 µM
Second compound 0.316 µM
  IC50: 3.12 µM
Second compound 1 µM
  IC50: 3.86 µM
[1]
  viability, T/C: 102%
[2]
  viability, T/C: 124%
[3]
  viability, T/C: 88.9%
[4]
  viability, T/C: 50%
[5]
  viability, T/C: 39%
[6]
  viability, T/C: 32.6%
[7]
  viability, T/C: 78.6%
[8]
  viability, T/C: 115%
[9]
  viability, T/C: 68.8%
[10]
  viability, T/C: 59.1%
[11]
  viability, T/C: 41.3%
[12]
  viability, T/C: 31.3%
[13]
  viability, T/C: 108%
[14]
  viability, T/C: 113%
[15]
  viability, T/C: 65.1%
[16]
  viability, T/C: 62.8%
[17]
  viability, T/C: 50.1%
[18]
  viability, T/C: 29.6%
[19]
  viability, T/C: 80.6%
[20]
  viability, T/C: 106%
[21]
  viability, T/C: 85.3%
[22]
  viability, T/C: 60.9%
[23]
  viability, T/C: 46.8%
[24]
  viability, T/C: 41%
[25]
  viability, T/C: 60.6%
[26]
  viability, T/C: 113%
[27]
  viability, T/C: 85.7%
[28]
  viability, T/C: 67.1%
[29]
  viability, T/C: 52.8%
[30]
  viability, T/C: 31.2%
[31]
  viability, T/C: 65.5%
[32]
  viability, T/C: 111%
[33]
  viability, T/C: 84.2%
[34]
  viability, T/C: 64.1%
[35]
  viability, T/C: 58.4%
[36]
  viability, T/C: 30%
